The text below walks through data of PMC12310481, “Sequence, characterization and pharmacological analyses of the adipokinetic hormone receptor in the stick insect, Carausius morosus” (Frontiers in Endocrinology, 2025).

Where “and” joins values, the source holds several entries; their conditions need not be identical. Identical values can stand only once. Like-named read-outs stand apart in the source and are kept apart here. Starred links: 1 amine or outer side, 2 acyl side, 3 side chain; linkers in the order of their positions; H or OH if unused. Non-standard residues stand in square brackets, D forms with d. Residues, ends and D or L forms follow the SMILES beside them. X1 = O=C([C@H](Cc1c([C@H]2O[C@H](CO)[C@@H](O)[C@H](O)[C@@H]2O)[nH]c2ccccc12)N[*:1])[*:2]; pGlu = O=C1CC[C@@H](C(=O)O)N1

This experiment relates to Carausius morosus AKH receptor (Carmo-AKHR). As to the kind of experiment: Calcium bioluminescence (aequorin) reporter assay, CHO-K1 cells stably expressing Carmo-AKHR. In kind it is cell-based. The note with it: for Fold-reduction in activity (receptor activation relative to Carmo-HrTH-II): ratio of EC50 relative to Carmo-HrTH-II; for Receptor activation (in words): dose-response or clonal line testing, luminescence. As for the experimental part: Functional activation of Carmo-AKHR was carried out by following mammalian cell culture procedures as previously described ([20], [29]) with the following modifications. […] At 24 h post-transfection, cells were selected in DMEM:F12 media containing 10% heat-inactivated fetal bovine serum (Wisent, St. Bruno, QC), 1x antimycotic-antibiotic and 600 μg/mL geneticin (G418) until clonal recombinant cells were evident in transfected cells while no live cells were present in non-transfected CHO-K1 cells (control). Individual clonal recombinant colonies were seeded into separate wells of a 96 well cell-culture dish (Sarstedt Inc., Montreal, QC) and grown to confluence while maintaining geneticin selection. To identify clonal recombinant lines with optimal Carmo-AKHR activity yielding the greatest signal-to-noise ratio, individual clonal recombinant lines were assayed in the bioluminescence reporter assay as described previously ([30]). […] The recombinant cell line showing the optimal luminescent response with greatest signal-to-noise ratio was expanded for preparation of cryo-stocks and subsequent detailed investigation of receptor specificity. […] Bruno, QC), 250 μg/mL Geneticin (MilliporeSigma Canada Ltd., Oakville, ON) and 1X antimycotic-antibiotic (ThermoFisher Scientific, Whitby, ON). […] Transfection was completed with PolyJetTM DNA In Vitro Transfection Reagent (FroggaBio, Toronto, ON) following manufacturer recommendations for transfection of adherent cells. At 48 hours post-transfection, cells were detached from culture flasks using Dulbecco's PBS (Wisent, St. Bruno, QC) containing 5 mM Ethylenediaminetetraacetic acid (EDTA) and were prepared for the functional assay as previously described ([30]). […] Immediately after injection of the cells into each well, luminescence was measured for 20 s using a Synergy 2 Multi-Mode Microplate Reader (BioTek, Winooski, VT, USA). […] Data were analyzed using a one-way or two-way ANOVA and Tukey's multiple comparisons post-hoc test, with differences between treatments considered significant if p<0.05.
(In a reporter assay the amount or activity of a reporter protein is the signal.)

Setting [1] is: CHO-K1 stably expressing Carmo-AKHR, transiently aequorin, luminescence measured 20 s, from dose-response activation curves, 3 to 4 independent biological replicates, normalized to ATP maximum, read-out: EC50 value.
[2] abbreviates: minimal activity up to the highest concentration tested, read-out: EC50 value (M), not determinable: minimal activity.

The term EC50 denotes the midpoint of the concentration-response curve. For the compound `CC(C)C[C@H](NC(=O)[C@@H]1CCC(=O)N1)C(=O)N[C@H](C(=O)N[C@@H](Cc1ccccc1)C(=O)N[C@H](C(=O)N1CCC[C@H]1C(=O)N[C@@H](C)C(=O)N[C@@H](Cc1c[nH]c2ccccc12)C(=O)NCC(=O)N[C@H](C(N)=O)[C@@H](C)O)[C@@H](C)O)[C@@H](C)O` [Ala^7-analog] ([pGlu]LTFTPAWGT-NH2), the “Fold-reduction in activity (receptor activation relative to Carmo-HrTH-II)” value was 4.21 fold. For the same compound, the EC50 under setting [1] was found to be 3.1e-07 M.
With `CC(C)C[C@H](N)C(=O)N[C@H](C(=O)N[C@@H](Cc1ccccc1)C(=O)N[C@H](C(=O)N1CCC[C@H]1C(=O)N[C@@H](CC(N)=O)C(=O)N[C@@H](Cc1c[nH]c2ccccc12)C(=O)NCC(=O)N[C@H](C(N)=O)[C@@H](C)O)[C@@H](C)O)[C@@H](C)O` [Carmo-HrTH-II minus pGlu] (H-LTFTPNWGT-NH2), the “Fold-reduction in activity (receptor activation relative to Carmo-HrTH-II)” value was above 1360 fold. Besides, the 50% effective concentration (EC50) under setting [2] is above 0.0001 M.
In the case of `CC[C@H](C)[C@H](NC(=O)[C@@H]1CCC(=O)N1)C(=O)N[C@H](C(=O)N[C@@H](Cc1ccccc1)C(=O)N[C@H](C(=O)N1CCC[C@H]1C(=O)N[C@@H](CC(N)=O)C(=O)N[C@@H](Cc1c[nH]c2ccccc12)C(N)=O)[C@@H](C)O)[C@@H](C)O` [Polae-HrTH] ([pGlu]ITFTPNW-NH2), the “Fold-reduction in activity (receptor activation relative to Carmo-HrTH-II)” value was 120 fold and 119.12 fold. Also, under setting [1], the EC50 was found to be 8.76e-06 M.
On to `CC(C)C[C@H](NC(=O)[C@@H]1CCC(=O)N1)C(=O)N[C@H](C(=O)N[C@@H](Cc1ccccc1)C(=O)N[C@H](C(=O)N1CCC[C@H]1C(=O)N[C@@H](CC(N)=O)C(=O)N[C@@H](Cc1c([C@H]2O[C@H](CO)[C@@H](O)[C@H](O)[C@@H]2O)[nH]c2ccccc12)C(=O)NCC(=O)N[C@H](C(N)=O)[C@@H](C)O)[C@@H](C)O)[C@@H](C)O` [Carmo-HrTH-I] ([pGlu]LTFTPN[X1]GT-NH2), for which the “Fold-reduction in activity (receptor activation relative to Carmo-HrTH-II)” value is 1.22 fold. Further, under setting [1], the concentration for a half-maximal effect (EC50) was 8.97e-08 M.
In the case of `CC(=O)N[C@@H](C)C(=O)N[C@@H](CC(C)C)C(=O)N[C@H](C(=O)N[C@@H](Cc1ccccc1)C(=O)N[C@H](C(=O)N1CCC[C@H]1C(=O)N[C@@H](CC(N)=O)C(=O)N[C@@H](Cc1c[nH]c2ccccc12)C(=O)NCC(=O)N[C@H](C(N)=O)[C@@H](C)O)[C@@H](C)O)[C@@H](C)O` [[N-Ac. Ala]^1-analog] (Ac-ALTFTPNWGT-NH2), the “Fold-reduction in activity (receptor activation relative to Carmo-HrTH-II)” value is listed as above 1360 fold. Moreover, under setting [2], the EC50 was above 0.0001 M.
Take `CC(C)C[C@H](NC(=O)[C@@H]1CCC(=O)N1)C(=O)N[C@H](C(=O)N[C@@H](Cc1ccccc1)C(=O)N[C@H](C(=O)N1CCC[C@H]1C(=O)N[C@@H](CC(N)=O)C(=O)N[C@@H](Cc1c[nH]c2ccccc12)C(=O)NCC(=O)N[C@@H](C)C(N)=O)[C@@H](C)O)[C@@H](C)O` [Ala^10-analog] ([pGlu]LTFTPNWGA-NH2): the “Fold-reduction in activity (receptor activation relative to Carmo-HrTH-II)” value amounted to 0.15 fold. Besides, the concentration for a half-maximal effect (EC50) under setting [1] came to 1.1e-08 M.
On the same counts, the results for `CC(C)C[C@H](NC(=O)[C@@H]1CCC(=O)N1)C(=O)N[C@H](C(=O)N[C@@H](Cc1ccccc1)C(=O)N[C@@H](C)C(=O)N1CCC[C@H]1C(=O)N[C@@H](CC(N)=O)C(=O)N[C@@H](Cc1c[nH]c2ccccc12)C(=O)NCC(=O)N[C@H](C(N)=O)[C@@H](C)O)[C@@H](C)O` [Ala^5-analog] ([pGlu]LTFAPNWGT-NH2) are 1166.83 fold and 8.58e-05 M.
As to `CC(C)C[C@H](NC(=O)[C@@H]1CCC(=O)N1)C(=O)N[C@H](C(=O)N[C@@H](Cc1ccccc1)C(=O)N[C@H](C(=O)N1CCC[C@H]1C(=O)N[C@@H](CC(N)=O)C(=O)N[C@@H](Cc1c[nH]c2ccccc12)C(=O)NCC(=O)N[C@H](C(N)=O)[C@@H](C)O)[C@@H](C)O)[C@@H](C)O` [Carmo-HrTH-II] ([pGlu]LTFTPNWGT-NH2), the half-maximal effective concentration (EC50) under setting [1] stood at 7.36e-08 M.
“pETFQYSRGWTN amide [Aedae-Crz, corazonin of the mosquito Aedes aegypti]”: the “Receptor activation (in words)” value is reported as “failed to activate the receptor at all tested doses”.
For “[pGlu]LAFTPNWGT-NH2 [Ala^3-analog, alanine-substituted analog of Carmo-HrTH-II, position 3]”, the “Fold-reduction in activity (receptor activation relative to Carmo-HrTH-II)” value amounted to 1045.82 fold.
Turning to `CC(C)C[C@H](NC(=O)[C@@H]1CCC(=O)N1)C(=O)N[C@H](C(=O)N[C@@H](Cc1ccccc1)C(=O)N[C@H](C(=O)N1CCC[C@H]1C(=O)N[C@@H](CC(N)=O)C(=O)N[C@@H](C)C(=O)NCC(=O)N[C@H](C(N)=O)[C@@H](C)O)[C@@H](C)O)[C@@H](C)O` [Ala^8-analog] ([pGlu]LTFTPNAGT-NH2), the “Fold-reduction in activity (receptor activation relative to Carmo-HrTH-II)” value was above 1360 fold. For the same compound, the half-maximal effective concentration (EC50) under setting [2] was above 0.0001 M.
Take `CC(C)C[C@H](NC(=O)[C@@H]1CCC(=O)N1)C(=O)N[C@@H](CC(N)=O)C(=O)N[C@@H](Cc1ccccc1)C(=O)N[C@@H](CO)C(=O)N1CCC[C@H]1C(=O)NCC(=O)N[C@@H](Cc1c[nH]c2ccccc12)C(N)=O` [Panbo-RPCH] ([pGlu]LNFSPGW-NH2): the “Fold-reduction in activity (receptor activation relative to Carmo-HrTH-II)” value is 455 fold and 455.74 fold. Besides, the concentration giving a half-maximal response (EC50) under setting [1] stood at 3.35e-05 M.
Turning to `CC(C)C[C@H](NC(=O)[C@@H]1CCC(=O)N1)C(=O)N[C@H](C(=O)N[C@@H](Cc1ccccc1)C(=O)N[C@H](C(=O)N1CCC[C@H]1C(=O)N[C@@H](CC(N)=O)C(=O)N[C@@H](Cc1c[nH]c2ccccc12)C(=O)N[C@@H](C)C(=O)N[C@H](C(N)=O)[C@@H](C)O)[C@@H](C)O)[C@@H](C)O` [Ala^9-analog] ([pGlu]LTFTPNWAT-NH2), the “Fold-reduction in activity (receptor activation relative to Carmo-HrTH-II)” value was 20.18 fold. For the same compound, the 50% effective concentration (EC50) under setting [1] stood at 1.48e-06 M.
On the same counts, the results for `C[C@H](NC(=O)[C@@H]1CCC(=O)N1)C(=O)N[C@H](C(=O)N[C@@H](Cc1ccccc1)C(=O)N[C@H](C(=O)N1CCC[C@H]1C(=O)N[C@@H](CC(N)=O)C(=O)N[C@@H](Cc1c[nH]c2ccccc12)C(=O)NCC(=O)N[C@H](C(N)=O)[C@@H](C)O)[C@@H](C)O)[C@@H](C)O` [Ala^2-analog] ([pGlu]ATFTPNWGT-NH2) are 9.42 fold and 6.93e-07 M.
On the same counts, the results for `CC(C)C[C@H](NC(=O)[C@@H]1CCC(=O)N1)C(=O)N[C@H](C(=O)N[C@@H](Cc1ccccc1)C(=O)N[C@H](C(=O)N[C@@H](C)C(=O)N[C@@H](CC(N)=O)C(=O)N[C@@H](Cc1c[nH]c2ccccc12)C(=O)NCC(=O)N[C@H](C(N)=O)[C@@H](C)O)[C@@H](C)O)[C@@H](C)O` [Ala^6-analog] ([pGlu]LTFTANWGT-NH2) are 5.49 fold and 4.04e-07 M.
For the compound “[pGlu]VTFSRDWNA-NH2 [Aedae-ACP, AKH/corazonin-related peptide of Aedes aegypti]”, the “Receptor activation (in words)” value is recorded as “failed to activate the receptor at all tested doses”.
On to `CC(C)[C@H](NC(=O)[C@@H]1CCC(=O)N1)C(=O)N[C@@H](CC(N)=O)C(=O)N[C@@H](Cc1ccccc1)C(=O)N[C@@H](CO)C(=O)N1CCC[C@H]1C(=O)N[C@@H](CC(N)=O)C(=O)N[C@@H](Cc1c[nH]c2ccccc12)C(N)=O` [Peram-CAH-I] ([pGlu]VNFSPNW-NH2), for which the “Receptor activation (in words)” value is “complete loss of efficacy” and the “Fold-reduction in activity (receptor activation relative to Carmo-HrTH-II)” value is recorded as above 1360 fold. Further, the EC50 under setting [2] is above 0.0001 M.
On to `CC(C)C[C@H](NC(=O)[C@@H]1CCC(=O)N1)C(=O)N[C@H](C(=O)N[C@@H](Cc1ccccc1)C(=O)N[C@H](C(=O)N1CCC[C@H]1C(=O)N[C@@H](CC(N)=O)C(=O)N[C@@H](Cc1c[nH]c2ccccc12)C(=O)NCC(N)=O)[C@@H](C)O)[C@@H](C)O` [Triin-AKH] ([pGlu]LTFTPNWG-NH2), for which the “Fold-reduction in activity (receptor activation relative to Carmo-HrTH-II)” value is 7.45 fold. Further, the concentration for a half-maximal effect (EC50) under setting [1] is 5.48e-07 M.
For the compound `CC(C)C[C@H](NC(=O)[C@@H]1CCC(=O)N1)C(=O)N[C@H](C(=O)N[C@@H](Cc1ccccc1)C(=O)N[C@H](C(=O)N1CCC[C@H]1C(=O)N[C@@H](CC(N)=O)C(=O)N[C@@H](Cc1c[nH]c2ccccc12)C(=O)NCC(=O)N[C@H](C(=O)O)[C@@H](C)O)[C@@H](C)O)[C@@H](C)O` [Carmo-HrTH-II free acid] ([pGlu]LTFTPNWGT-OH), the “Fold-reduction in activity (receptor activation relative to Carmo-HrTH-II)” value is recorded as above 1360 fold. The concentration for a half-maximal effect (EC50) under setting [2] was above 0.0001 M.
Consider “[pGlu]LTATPNWGT-NH2 [Ala^4-analog, alanine-substituted analog of Carmo-HrTH-II, position 4]”, for which the “Fold-reduction in activity (receptor activation relative to Carmo-HrTH-II)” value is above 1360 fold.
